Source: PubChem BioAssay (NCI)
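Compound exposure: 48 hours, 5 concentrations, 96-well plates. Abbreviation: GI50, concentration required for 50% inhibition of growth. Definition used: TGI = concentration required for complete inhibition of growth.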

What was measured:
Assay in all cases: inhibition of tumour cell growth, NCI panel, 48 h
[1] = system: DU-145 prostate
[2] = system: A549 NSCLC
[3] = system: MALME-3M melanoma
[4] = system: SNB-75 CNS
[5] = system: UO-31 renal
[6] = system: A498 renal
[7] = system: SW-620 colon
[8] = system: SK-MEL-5 melanoma
[9] = system: HCC-2998 colon
[10] = system: PC-3 prostate
[11] = system: IGROV1 ovarian
[12] = system: NCI-H226 lung
[13] = system: SNB-19 CNS
[14] = system: KM12 colon
[15] = system: NCI-H460 lung
[16] = system: T-47D breast
[17] = system: MDA-MB-435
[18] = system: MCF7 breast
[19] = system: OVCAR-8 ovarian
[20] = system: EKVX NSCLC
[21] = system: SK-MEL-28 melanoma
[22] = system: HCT-116 colon
[23] = system: HOP-62 NSCLC
[24] = system: RXF 393 renal
[25] = system: BT-549 breast
[26] = system: OVCAR-5 ovarian
[27] = system: MOLT-4 leukemia
[28] = system: 786-0 renal
[29] = system: UACC-62 melanoma
[30] = system: NCI/ADR-RES ovarian
[31] = system: SK-MEL-2 melanoma
[32] = system: SF-539 CNS
[33] = system: HL-60(TB) leukemia
[34] = system: SK-OV-3 ovarian
[35] = system: ACHN renal
[36] = system: HT29 colon
[37] = system: MDA-MB-231 breast
[38] = system: COLO 205 colon
[39] = system: SF-295 CNS
[40] = system: SF-268 CNS
[41] = system: HCT-15 colon
[42] = system: LOX IMVI melanoma
[43] = system: OVCAR-4 ovarian
[44] = system: U251 CNS
[45] = system: NCI-H23 lung
[46] = system: CCRF-CEM leukemia
[47] = system: K-562 leukemia
[48] = system: HS 578T breast
[49] = system: CAKI-1 renal
[50] = system: OVCAR-3 ovarian
[51] = system: NCI-H522 lung
[52] = system: SN12C renal
[53] = system: UACC-257 melanoma
[54] = system: RPMI-8226 leukemia
[55] = system: SR leukemia
[56] = system: HOP-92 NSCLC

N#Cc1ccc(O)c(C2=NCC(c3cccc(Oc4ccccc4)c3)O2)c1 (configuration not stated)
GI50 [1]: 1270 nM
TGI [1]: > 100000 nM
GI50 [2]: 876 nM
TGI [2]: 11800 nM
GI50 [3]: 1830 nM
TGI [3]: 7760 nM
GI50 [4]: 1080 nM
TGI [4]: > 100000 nM
GI50 [5]: 449 nM
TGI [5]: 2750 nM
GI50 [6]: 2060 nM
TGI [6]: 22300 nM
GI50 [7]: 508 nM
TGI [7]: 22800 nM
GI50 [8]: 549 nM
TGI [8]: 2300 nM
GI50 [9]: 881 nM
TGI [9]: 57800 nM
GI50 [10]: 938 nM
TGI [10]: 41600 nM
GI50 [11]: 787 nM
TGI [11]: 12100 nM
GI50 [12]: 1700 nM
TGI [12]: 11100 nM
GI50 [13]: 1390 nM
TGI [13]: > 100000 nM
GI50 [14]: 687 nM
TGI [14]: 23100 nM
GI50 [15]: 434 nM
TGI [15]: 10200 nM
GI50 [16]: 817 nM
TGI [16]: 59600 nM
GI50 [17]: 1630 nM
TGI [17]: > 100000 nM
GI50 [18]: 792 nM
TGI [18]: 15800 nM
GI50 [19]: 578 nM
TGI [19]: > 100000 nM
GI50 [20]: 507 nM
TGI [20]: > 100000 nM
GI50 [21]: 2090 nM
TGI [21]: > 100000 nM
GI50 [22]: 587 nM
TGI [22]: 13700 nM
GI50 [23]: 605 nM
TGI [23]: 12700 nM
GI50 [24]: 1530 nM
TGI [24]: 9560 nM
GI50 [25]: 1960 nM
TGI [25]: 17800 nM
GI50 [26]: 2950 nM
TGI [26]: > 100000 nM
GI50 [27]: 1670 nM
TGI [27]: > 100000 nM
GI50 [28]: 761 nM
TGI [28]: 7590 nM
GI50 [29]: 1030 nM
TGI [29]: 2270 nM
GI50 [30]: 290 nM
TGI [30]: 6510 nM
GI50 [31]: 2410 nM
TGI [31]: 24400 nM
GI50 [32]: 1830 nM
TGI [32]: 9270 nM
GI50 [33]: 852 nM
TGI [33]: 9290 nM
GI50 [34]: 1580 nM
TGI [34]: 21300 nM
GI50 [35]: 615 nM
TGI [35]: 14300 nM
GI50 [36]: 5410 nM
TGI [36]: 41600 nM
GI50 [37]: 1280 nM
TGI [37]: 12000 nM
GI50 [38]: 3130 nM
TGI [38]: 15600 nM
GI50 [39]: 413 nM
TGI [39]: 23500 nM
GI50 [40]: 1300 nM
TGI [40]: > 100000 nM
GI50 [41]: 363 nM
TGI [41]: 36100 nM
GI50 [42]: 420 nM
TGI [42]: 12700 nM
GI50 [43]: 519 nM
TGI [43]: > 100000 nM
GI50 [44]: 503 nM
TGI [44]: > 100000 nM
GI50 [45]: 1270 nM
TGI [45]: > 100000 nM
GI50 [46]: 555 nM
TGI [46]: > 100000 nM
GI50 [47]: 394 nM
TGI [47]: > 100000 nM
GI50 [48]: 3030 nM
TGI [48]: > 100000 nM
GI50 [49]: 392 nM
TGI [49]: 37900 nM
GI50 [50]: 432 nM
TGI [50]: 10800 nM
GI50 [51]: 1170 nM
TGI [51]: 12300 nM
GI50 [52]: 1210 nM
TGI [52]: 89500 nM
GI50 [53]: 2280 nM
TGI [53]: 7290 nM
GI50 [54]: 715 nM
TGI [54]: > 100000 nM
GI50 [55]: 933 nM
TGI [55]: > 100000 nM
GI50 [56]: 1810 nM
TGI [56]: 37000 nM
